The values below are quoted from earlier work in PMC11672368 (Therapeutic Advances in Medical Oncology, 2024).

For data set [1] the following is noted: depot injection.

Consider leuprolide acetate, for which, in the data set with serum testosterone, the “achievement rate of serum total testosterone 0.2 ng/mL” value is 57%.
Regarding degarelix, in data set [1], the “incidence of injection-site reactions” value is around 40%.
With Triptorelin, the “elimination half-life (t1/2)” value is reported as 5 h.
